ChEMBL document CHEMBL3992560, “Synthesis and pharmacological evaluation of pyrazolo[1,5-a]pyrimidin-7(4H)-one derivatives as potential GABAA-R ligands” (Bioorg Med Chem, 2017)
Activity calls are given as the source filed them. The calls are words filed in the database; no cut-off is given here.

Assays:
Bos taurus = species: Bos taurus; test: Displacement of [3H]Ro15-1788 from GABA-A receptor benzodiazepine site in bovine brain cerebral cortex membranes at 10 uM relative to control; conditions: Membrane
[1] = Displacement of [3H]Ro15-1788 from GABA-A receptor benzodiazepine site in bovine brain cerebral cortex membranes; design: species or system Bos taurus, Membrane
Rattus norvegicus [2] = test: Anxiolytic-like activity in Sprague-Dawley rat assessed as time spent in open arms at 1 mg/kg, po administered 30 mins prior to test by elevated […] maze test relative to control; type: functional
Rattus norvegicus [3] = test: Anxiolytic-like activity in Sprague-Dawley rat assessed as total number of arm entries at 1 mg/kg, po administered 30 mins prior to test by elevated […] maze test; type: functional
Mus musculus [4] = test: Anxiolytic-like activity in CD-1 mouse assessed as number of transfer from one compartment to other at 1 mg/kg, po administered 30 mins prior to test by light/dark exploration test; type: functional
Mus musculus [5] = test: Anxiolytic-like activity in CD-1 mouse assessed as time spent in light area at 1 mg/kg, po administered 30 mins prior to test by light/dark exploration test relative to control; type: functional
Mus musculus [6] = test: Anxiolytic-like activity in CD-1 mouse assessed as increase in time spent in light area at 1 to 30 mg/kg, po administered 30 mins prior to test by light/dark exploration test; type: functional, organism-based
Mus musculus [7] = test: Anxiolytic-like activity in CD-1 mouse assessed as time spent in light area at 3 mg/kg, po administered 30 mins prior to test by light/dark exploration test relative to control; type: functional
Mus musculus [8] = test: Anxiolytic-like activity in CD-1 mouse assessed as time spent in light area at 10 mg/kg, po administered 30 mins prior to test by light/dark exploration test relative to control; type: functional
Mus musculus [9] = test: Anxiolytic-like activity in CD-1 mouse assessed as number of transfer from one compartment to other at 30 mg/kg, po administered 30 mins prior to test by light/dark exploration test; type: functional
Mus musculus [10] = test: Anxiolytic-like activity in CD-1 mouse assessed as number of transfer from one compartment to other at 3 mg/kg, po administered 30 mins prior to test by light/dark exploration test; type: functional
[11] = target: GABA A receptor alpha-2/beta-2/gamma-2 (Homo sapiens) (UniProt P47870+P18507+P47869); test: Displacement of [3H]Ro15-1788 from GABA-Aalpha2beta2gamma2 receptor (unknown origin) expressed in cell membranes after 1 hr relative to control
Mus musculus [12] = test: Anxiolytic-like activity in CD-1 mouse assessed as time spent in light area at 30 mg/kg, po administered 30 mins prior to test by light/dark exploration test relative to control; type: functional
Mus musculus [13] = test: Anxiolytic-like activity in CD-1 mouse assessed as number of transfer from one compartment to other at 10 mg/kg, po administered 30 mins prior to test by light/dark exploration test; type: functional
Mus musculus [14] = test: Anxiolytic-like activity in CD-1 mouse assessed as time spent in light area at 10 mg/kg, po administered 30 mins prior to test followed by flumazenil injection by light/dark exploration test relative to control; type: functional
[15] = target: GABA-A receptor; alpha-5/beta-3/gamma-2 (Homo sapiens) (UniProt P18507+P28472+P31644); test: Displacement of [3H]Ro15-1788 from GABA-Aalpha5beta3gamma2 receptor (unknown origin) expressed in cell membranes after 1 hr relative to control
Rattus norvegicus [16] = test: Anxiolytic-like activity in Sprague-Dawley rat assessed as time spent in open arms at 10 mg/kg, po administered 30 mins prior to test by elevated […] maze test relative to control; type: functional
[17] = target: T1, GABA-A receptor; alpha-1/beta-2/gamma-2 (Homo sapiens, UniProt P14867+P18507+P47870); test: Displacement of [3H]Ro15-1788 from GABA-Aalpha1beta2gamma2 receptor (unknown origin) expressed in cell membranes after 1 hr
T1 sequence (P14867 whole entry): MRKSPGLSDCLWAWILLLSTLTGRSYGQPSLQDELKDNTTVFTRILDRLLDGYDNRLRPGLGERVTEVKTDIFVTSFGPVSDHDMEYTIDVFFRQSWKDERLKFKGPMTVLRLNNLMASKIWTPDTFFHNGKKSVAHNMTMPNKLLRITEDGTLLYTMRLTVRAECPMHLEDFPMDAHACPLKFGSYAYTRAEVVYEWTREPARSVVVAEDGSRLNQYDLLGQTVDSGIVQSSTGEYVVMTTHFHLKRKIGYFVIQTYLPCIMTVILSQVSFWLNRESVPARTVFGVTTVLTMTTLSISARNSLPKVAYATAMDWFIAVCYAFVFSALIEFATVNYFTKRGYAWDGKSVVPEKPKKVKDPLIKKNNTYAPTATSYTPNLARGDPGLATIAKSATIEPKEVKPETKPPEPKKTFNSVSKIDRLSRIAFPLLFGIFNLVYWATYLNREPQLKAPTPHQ
T1 sequence (P47870 whole entry): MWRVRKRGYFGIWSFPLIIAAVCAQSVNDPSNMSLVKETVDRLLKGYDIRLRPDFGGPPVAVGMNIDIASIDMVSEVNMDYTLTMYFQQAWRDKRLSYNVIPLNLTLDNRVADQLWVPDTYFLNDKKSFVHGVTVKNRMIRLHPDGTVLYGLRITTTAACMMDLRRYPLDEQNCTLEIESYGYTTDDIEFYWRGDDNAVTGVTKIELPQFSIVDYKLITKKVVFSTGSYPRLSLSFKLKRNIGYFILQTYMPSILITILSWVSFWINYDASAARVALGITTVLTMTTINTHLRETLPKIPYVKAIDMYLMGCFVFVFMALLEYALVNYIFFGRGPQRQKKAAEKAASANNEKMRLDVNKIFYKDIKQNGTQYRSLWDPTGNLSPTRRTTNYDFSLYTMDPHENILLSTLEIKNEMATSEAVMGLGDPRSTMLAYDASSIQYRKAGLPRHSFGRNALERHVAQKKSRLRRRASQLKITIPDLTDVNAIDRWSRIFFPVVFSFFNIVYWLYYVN
T1 sequence (P18507 whole entry): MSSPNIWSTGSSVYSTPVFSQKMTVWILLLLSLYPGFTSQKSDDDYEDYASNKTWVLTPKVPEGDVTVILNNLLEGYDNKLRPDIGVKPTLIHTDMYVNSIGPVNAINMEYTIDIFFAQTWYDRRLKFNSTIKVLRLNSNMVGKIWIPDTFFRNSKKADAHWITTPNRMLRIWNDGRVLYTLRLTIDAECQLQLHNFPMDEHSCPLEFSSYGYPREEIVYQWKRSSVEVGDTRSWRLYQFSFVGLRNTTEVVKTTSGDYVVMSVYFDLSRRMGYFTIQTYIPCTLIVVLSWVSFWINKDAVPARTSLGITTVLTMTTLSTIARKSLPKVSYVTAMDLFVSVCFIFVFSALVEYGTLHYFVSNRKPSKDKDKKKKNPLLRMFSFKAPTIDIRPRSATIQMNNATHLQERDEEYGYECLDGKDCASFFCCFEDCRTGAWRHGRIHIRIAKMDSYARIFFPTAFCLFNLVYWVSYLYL

Mus musculus [18] = test: Anxiolytic-like activity in CD-1 mouse assessed as number of transfer from one compartment to other at 30 mg/kg, po administered 30 mins prior to test followed by flumazenil injection by light/dark exploration test; type: functional
Rattus norvegicus [19] = test: Anxiolytic-like activity in Sprague-Dawley rat assessed as total number of arm entries at 10 mg/kg, po administered 30 mins prior to test by elevated […] maze test; type: functional

For `O=c1c(-c2ccccc2)c[nH]c2c(-c3ccccc3)cnn12`, the inhibition (Bos taurus) was greater than 80% and the Ki ([1]; read-out: Ki) was 0.368 µM.

Compound `O=c1c(-c2ccccc2)c[nH]c2c(-c3ccc(F)cc3)cnn12` has an inhibition (Bos taurus) greater than 80% and a Ki ([1]; read-out: Ki) of 0.132 µM.

`COc1cccc(-c2cnn3c(=O)c(-c4ccccc4)c[nH]c23)c1` showed an inhibition (Bos taurus) greater than 80% and a Ki ([1]; read-out: Ki) of 0.192 µM.

With `O=c1c(Cc2ccccc2)c[nH]c2c(-c3ccc4ccccc4c3)cnn12` the inhibition (Bos taurus) was greater than 80% and the Ki ([1]; read-out: Ki) was 0.0733 µM.

For `COc1cccc(-c2cnn3c(=O)c(Cc4ccccc4)c[nH]c23)c1`, the inhibition (Bos taurus) was greater than 80% and the Ki ([1]; read-out: Ki) was 0.0496 µM.

With `Cc1cccc(-c2cnn3c(=O)c(Cc4ccccc4)c[nH]c23)c1` the inhibition (Bos taurus) was greater than 80% and the Ki ([1]; read-out: Ki) was 0.018 µM.

`O=c1c(Cc2ccccc2)c[nH]c2c(-c3cccc(Br)c3)cnn12` showed an inhibition (Bos taurus) greater than 80% and a Ki ([1]; read-out: Ki) of 0.0299 µM.

`O=c1c(-c2ccccc2)c[nH]c2c(-c3cccc(C(F)(F)F)c3)cnn12` showed an inhibition (Bos taurus) greater than 80% and a Ki ([1]; read-out: Ki) of 0.118 µM.

Work on `O=c1c(-c2ccccc2)c[nH]c2c(-c3cccs3)cnn12` yielded an inhibition (Bos taurus) greater than 80% and a Ki ([1]; read-out: Ki) of 0.215 µM.

For `O=c1c(Cc2ccccc2)c[nH]c2c(-c3cccc(C(F)(F)F)c3)cnn12`, the inhibition (Bos taurus) was greater than 80% and the Ki ([1]; read-out: Ki) was 0.0223 µM.

`CN1C(=O)CN=C(c2ccccc2)c2cc(Cl)ccc21` [DIAZEPAM] gave an Activity (Rattus norvegicus [2]) of 34.9%, a Ki ([1]; read-out: Ki) of 0.01 µM and an Activity (Rattus norvegicus [3]) of 10.5. It also gave an Activity (Mus musculus [4]) of 8.3 and an Activity (Mus musculus [5]) of 171.6%.

With `O=c1c(Cc2ccccc2)c[nH]c2c(-c3ccsc3)cnn12` the inhibition (Bos taurus) was less than 80% and the Ki [1] was “Not Active”.

For `O=c1c(-c2ccccc2)c[nH]c2c(-c3ccccn3)cnn12`, the inhibition (Bos taurus) was greater than 80%, the Activity (Mus musculus [6]) was “inactive” and the Ki ([1]; read-out: Ki) was 0.211 µM.

Compound `O=c1c(Cc2ccccc2)c[nH]c2c(-c3cccs3)cnn12` has an inhibition (Bos taurus) greater than 80% and a Ki ([1]; read-out: Ki) of 0.502 µM.

`O=c1c(-c2ccccc2)c[nH]c2c(-c3ccsc3)cnn12` showed an inhibition (Bos taurus) greater than 80% and a Ki ([1]; read-out: Ki) of 0.0722 µM.

With `O=c1c(Cc2ccccc2)c[nH]c2c(-c3cccnc3)cnn12` the inhibition (Bos taurus) was greater than 80% and the Ki ([1]; read-out: Ki) was 0.0733 µM.

In the case of `O=c1c(Cc2ccccc2)c[nH]c2c(-c3ccccc3)cnn12`, the inhibition (Bos taurus) is reported as greater than 80% and the Ki ([1]; read-out: Ki) is reported as 0.132 µM.

For `O=c1c(-c2ccccc2)c[nH]c2c(-c3cccc4ccccc34)cnn12`, the inhibition (Bos taurus) was greater than 80% and the Ki ([1]; read-out: Ki) was 0.375 µM.

Compound `Cc1cccc(-c2cnn3c(=O)c(-c4ccccc4)c[nH]c23)c1` has an inhibition (Bos taurus) greater than 80% and a Ki ([1]; read-out: Ki) of 0.087 µM.

Compound `O=c1c(Cc2ccccc2)c[nH]c2c(-c3ccc(F)cc3)cnn12` has an inhibition (Bos taurus) greater than 80% and a Ki ([1]; read-out: Ki) of 0.0346 µM.

For `O=c1c(-c2ccccc2)c[nH]c2c(-c3cccc(Br)c3)cnn12`, the inhibition (Bos taurus) was greater than 80% and the Ki ([1]; read-out: Ki) was 0.0393 µM.

Work on `O=c1c(Cc2ccccc2)c[nH]c2c(-c3ccccn3)cnn12` yielded an Activity (Mus musculus [7]) of 145.2%, an Activity (Mus musculus [8]) of 165.4% and an Activity (Mus musculus [9]) of 28.9. The Activity (Mus musculus [10]) was 21.3, the inhibition (Bos taurus) was greater than 80% and the inhibition [11] was 14%. For the same compound, the Ki ([1]; read-out: Ki) was 0.0298 µM, the Activity (Mus musculus [12]) was 164.4% and the Activity (Mus musculus [13]) was 23.9. It also gave an Activity (Mus musculus [14]) of 120.08%, an Activity (Mus musculus [4]) of 15 and an inhibition [15] of 31%. It also gave an Activity (Mus musculus [5]) of 113.9%, an Activity (Rattus norvegicus [16]) of 29.6% and a Ki [17] of 0.183 µM. For the same compound, the Activity (Mus musculus [18]) was 12.8 and the Activity (Rattus norvegicus [19]) was 10.5.

In the case of `O=c1c(Cc2ccccc2)c[nH]c2c(Cc3ccccc3)cnn12`, the inhibition (Bos taurus) is reported as less than 80% and the Ki [1] is reported as “Not Active”.

Compound `O=c1c(Cc2ccccc2)c[nH]c2c(-c3cccc4ccccc34)cnn12` has an inhibition (Bos taurus) greater than 80% and a Ki ([1]; read-out: Ki) of 0.112 µM.

With `O=c1c(-c2ccccc2)c[nH]c2c(Cc3ccccc3)cnn12` the inhibition (Bos taurus) was less than 80% and the Ki [1] was “Not Active”.

In the case of `O=c1c(-c2ccccc2)c[nH]c2c(-c3ccc4ccccc4c3)cnn12`, the inhibition (Bos taurus) is reported as less than 80% and the Ki [1] is reported as “Not Active”.

With `O=c1c(-c2ccccc2)c[nH]c2c(-c3cccnc3)cnn12` the inhibition (Bos taurus) was greater than 80% and the Ki ([1]; read-out: Ki) was 0.0584 µM.
